Tested on: E. coli HB101/pPAP5 (agglutination of human erythrocytes)
Test: Inhibition of haemagglutination (HA inhibition) of human erythrocytes by E. coli
Type: cell-based
Conditions: for IC50: Escherichia coli, Erythrocyte; for ΔΔG^o: ΔΔG°=RTlnKrel, Krel = IC50 ratio to compound 1; for Relative potency (%): in relation to compound 1, calculated from IC50; for inhibitory power (in words): haemagglutination inhibition, compared with the methyl galabioside / unmodified galabioside
Source text: Bacterial strain HB101/pPAPS. Plasmid pPAP5 carries the pap gene cluster isolated from the uropathogenic E.coli isolate J96. The clone produces P pill that mediate agglutination of human erythrocytes by binding to the galabiose-containing P-blood group antigens present on the erythrocyte surface. The galabiose binding property resides in the PapG gene product which is present at the tip of the P pilus as a minor component.
HA of a 1% human P erythrocyte suspension in phosphate-buffered saline was determined for agar-grown organisms by suspending the bacteria to a Klett of 490 (ca 1×10^9 bacteria/mL). A sample of the bacterial suspension (25 μL) was serially diluted in microtiter plates containing 25 μL PBS in each well. An equal volume of erythrocyte suspension was added and after mixing, the plates were incubated at 4° C. for 18 h. The HA endpoint was defined as the dilution in the last well before erythrocyte buttons were formed. The titer was expressed as the reciprocal of the endpoint dilution.
The HA titer of the strains to be tested was determined as described above and the cells were diluted so that each strain gave a titer of 64. The concentration of each of the analogues 1-25 was adjusted to 100 mM and 25 μL of each analogue was serially diluted in microtiter plates containing 25 μL of PBS in each well. The bacterial suspension (25 μL; HA titer=64) was then added to each well. After incubation for 30 min at room temperature, human erythrocytes (1% suspension) were added by gentle mixing and the plates were incubated at 4° C. overnight. The endpoint was defined as the greatest dilution of the analogue (minimal concentration) that gave a 50% inhibition of the HA (IC50).
The IC50 -values given in the tables are mean values from 3 consecutive runs. The ratio of the IC50 -value for an inhibitor and compound 1 is the relative equilibrium constant, Krel. This value was used for the calculation of the difference free energy values (ΔΔG°) using the expression ΔΔG°=RTlnKrel. It should be stressed that the conclusions made here about the nature of the adhesin receptor is based on the assumption that all the inhibitors have similar over-all confirmations oriented in a similar way in the receptor side and that only one type of galablest-specific receptor is present in the adhesin.

[1] = Table 1, inhibition of agglutination of human erythrocytes by E. coli, mean of 3 consecutive runs
[2] = Table 2, footnote a: separate inhibition experiment where reference compound 1 showed IC50 = 0.0434 mM
[3] = Table 2, glycoside analogs, inhibition of agglutination of human erythrocytes by E. coli, mean of 3 runs
[4] = Table 2, relative to compound 1 (IC50 0.20 mM)
[5] = Table 2, in relation to compound 1 (IC50 0.20 mM)
[6] = Table 2, footnote a: separate experiment, relative to compound 1 IC50 = 0.0434 mM

Row | SMILES | IC50 [1] | IC50 [3] | ΔΔG^o (Table 1) | ΔΔG (kJmol^-1) [4] | Relative potency (%) (Table 1) | Inhib. power (%) [5] | further results
1 | CO[C@@H]1O[C@H](CO)[C@H](O[C@H]2O[C@H](CO)[C@H](O)[C@H](O)[C@H]2O)[C@H](O)[C@H]1O [Compound 1, Galα1-4GalβOMe, reference compound] | 200 µM | 200 µM | 0 kcal/mol | 0.00 kJmol^-1 | – | – | IC50 [2]: 43.4 µM
2 | CO[C@H]1C[C@@H](O)[C@@H](O[C@H]2O[C@H](CO)[C@H](O)[C@H](O)[C@H]2O)[C@@H](CO)O1 [Compound 2] | 350 µM | – | 0.335 kcal/mol | – | 56% | – | –
3 | CO[C@@H]1O[C@H](CO)[C@H](O[C@H]2O[C@H](CO)[C@H](O)[C@H](O)[C@H]2O)C[C@H]1O [Compound 3] | 1000 µM | – | 0.932 kcal/mol | – | 19% | – | –
4 | CO[C@@H]1O[C@H](C)[C@H](O[C@H]2O[C@H](CO)[C@H](O)[C@H](O)[C@H]2O)[C@H](O)[C@H]1O [Compound 4] | 4200 µM | – | 1.7 kcal/mol | – | 4.7% | – | –
5 | CO[C@@H]1O[C@H](CO)[C@H](O[C@@H]2C[C@@H](O)[C@@H](O)[C@@H](CO)O2)[C@H](O)[C@H]1O [Compound 5] | 2600 µM | – | 1.43 kcal/mol | – | 7.6% | – | –
6 | CO[C@@H]1O[C@H](CO)[C@H](O[C@H]2O[C@H](CO)[C@H](O)C[C@H]2O)[C@H](O)[C@H]1O [Compound 6] | 6500 µM | – | 1.96 kcal/mol | – | 3.0% | – | –
7 | CO[C@@H]1O[C@H](CO)[C@H](O[C@H]2O[C@H](CO)C[C@H](O)[C@H]2O)[C@H](O)[C@H]1O [Compound 7] | 10000 µM | – | 2.2 kcal/mol | – | 1.9% | – | –
8 | CO[C@@H]1O[C@H](CO)[C@H](O[C@H]2O[C@H](C)[C@H](O)[C@H](O)[C@H]2O)[C@H](O)[C@H]1O [Compound 8] | 3700 µM | – | 1.63 kcal/mol | – | 5.3% | – | –
9 | CO[C@@H]1O[C@H](CO)[C@H](O[C@H]2O[C@H](CO)[C@H](O)[C@H](O)[C@H]2O)[C@H](OC)[C@H]1O [Compound 9] | 1600 µM | – | 1.17 kcal/mol | – | 12% | – | –
10 | COC[C@H]1O[C@@H](OC)[C@H](O)[C@@H](O)[C@H]1O[C@H]1O[C@H](CO)[C@H](O)[C@H](O)[C@H]1O [Compound 10] | > 25000 µM | – | > 2.63 kcal/mol | – | < 1% | – | –
11 | CO[C@@H]1O[C@H](CO)[C@H](O[C@H]2O[C@H](CO)[C@H](O)[C@H](OC)[C@H]2O)[C@H](O)[C@H]1O [Compound 11, Methyl 4-O-(3-O-methyl-α-D-galactopyranosyl)-β-D-galactopyranoside] | 87 µM | – | -0.43 kcal/mol | – | 220% | – | inhibitory power (in words): marked increase in the inhibitory power
12 | CO[C@@H]1O[C@H](CF)[C@H](O[C@H]2O[C@H](CO)[C@H](O)[C@H](O)[C@H]2O)[C@H](O)[C@H]1O [Compound 12] | 9300 µM | – | 2.15 kcal/mol | – | 2.1% | – | –
13 | CO[C@@H]1O[C@H](CO)[C@H](O[C@H]2O[C@H](CO)[C@H](F)[C@H](O)[C@H]2O)[C@H](O)[C@H]1O [Compound 13] | 3500 µM | – | 1.6 kcal/mol | – | 5.6% | – | –
14 | CO[C@@H]1O[C@H](CO)[C@H](O[C@H]2O[C@H](CF)[C@H](O)[C@H](O)[C@H]2O)[C@H](O)[C@H]1O [Compound 14] | 350 µM | – | 0.323 kcal/mol | – | 56% | – | –
15 | CO[C@@H]1O[C@H](CO)[C@H](O[C@H]2O[C@H](CO)[C@H](O)[C@H](O)[C@H]2O)[C@H](C)[C@H]1O [Compound 15] | 390 µM | – | 0.382 kcal/mol | – | 50% | – | –
16 | CC[C@@H]1[C@@H](O)[C@H](OC)O[C@H](CO)[C@@H]1O[C@H]1O[C@H](CO)[C@H](O)[C@H](O)[C@H]1O [Compound 16] | 3800 µM | – | 1.65 kcal/mol | – | 5.1% | – | –
17 | CO[C@@H]1O[C@H](CO)[C@H](O[C@H]2O[C@H](CO)[C@@H](O)[C@H](O)[C@H]2O)[C@H](O)[C@H]1O [Compound 17] | 5100 µM | – | 1.82 kcal/mol | – | 3.8% | – | –
18 | CCO[C@@H]1O[C@H](CO)[C@H](O[C@H]2O[C@H](CO)[C@H](O)[C@H](O)[C@H]2O)[C@H](O)[C@H]1O [Compound 18] | – | 130 µM | – | -0.9 kJmol^-1 | – | 150% | –
19 | CC(C)CO[C@@H]1O[C@H](CO)[C@H](O[C@H]2O[C@H](CO)[C@H](O)[C@H](O)[C@H]2O)[C@H](O)[C@H]1O [Compound 19] | – | 87 µM | – | -1.8 kJmol^-1 | – | 220% | –
20 | C[Si](C)(C)CCO[C@@H]1O[C@H](CO)[C@H](O[C@H]2O[C@H](CO)[C@H](O)[C@H](O)[C@H]2O)[C@H](O)[C@H]1O [Compound 20] | – | 49 µM | – | -3.2 kJmol^-1 | – | 400% | –
21 | OCC(O)CO[C@@H]1O[C@H](CO)[C@H](O[C@H]2O[C@H](CO)[C@H](O)[C@H](O)[C@H]2O)[C@H](O)[C@H]1O (stereo partly shown) [Compound 21] | – | 130 µM | – | -0.9 kJmol^-1 | – | 150% | –
22 | C[Si](C)(C)CCO[C@@H]1O[C@H](CO)[C@@H](O[C@@H]2O[C@H](CO)[C@H](O[C@H]3O[C@H](CO)[C@H](O)[C@H](O)[C@H]3O)[C@H](O)[C@H]2O)[C@H](O)[C@H]1O [Compound 22] | – | 260 µM | – | 0.7 kJmol^-1 | – | 75% | –
23 | CO[C@H]1O[C@H](CO)[C@H](O[C@H]2O[C@H](CO)[C@H](O)[C@H](O)[C@H]2O)[C@H](O)[C@H]1O [Compound 23] | – | 2100 µM | – | 5.6 kJmol^-1 | – | 9.0% | –
24 | OC[C@H]1O[C@H](O[C@@H]2[C@H](O)[C@@H](O)C(O)O[C@@H]2CO)[C@H](O)[C@@H](O)[C@H]1O (stereo partly shown) [Compound 24] | – | 1400 µM | – | 4.6 kJmol^-1 | – | 14% | –
25 | OC[C@H]1O[C@H](O[C@@H]2[C@H](O)[C@@H](O)[C@H](OCCSCCCCCCCCCSCCO[C@@H]3O[C@H](CO)[C@H](O[C@H]4O[C@H](CO)[C@H](O)[C@H](O)[C@H]4O)[C@H](O)[C@H]3O)O[C@@H]2CO)[C@H](O)[C@@H](O)[C@H]1O [Compound 25] | – | 6.8 µM | – | -7.8 kJmol^-1 | – | 2900% | inhibitory power (in words): very high inhibitory power
26 | CCO[C@@H]1O[C@H](CO)[C@@H](O[C@@H]2O[C@H](CO)[C@H](O)[C@H](O)[C@H]2O)[C@H](O)[C@H]1O [Compound 26, Galβ1-4GlcβOCH2 CH3, reference compound] | – | > 25000 µM | – | > 11 kJmol^-1 | – | < 1.0% | –
27 | CCCCS(=O)(=O)CC(CO[C@@H]1O[C@H](CO)[C@H](O[C@H]2O[C@H](CO)[C@H](O)[C@H](O)[C@H]2O)[C@H](O)[C@H]1O)CS(=O)(=O)CCCC [Compound 27, 3-Butylsulfonyl-2-butylsulfonylmethylpropyl 4-O-α-D-galactopyranosyl-β-D-galactopyranoside] | – | – | – | – | – | – | IC50 [2]: 2.3 µM; Inhib. power (%) [6]: 1887%; ΔΔG (kJmol^-1) [6]: -6.8 kJmol^-1
28 | CCS[C@@H]1O[C@H](CO)[C@H](O[C@H]2O[C@H](CO)[C@H](O)[C@H](O)[C@H]2O)[C@H](O)[C@H]1O [Compound 28, Ethyl 1-thio-4-O-(α-D-galactopyranosyl)-β-D-galactopyranoside] | – | – | – | – | – | – | IC50 [2]: 16.3 µM; Inhib. power (%) [6]: 266%; ΔΔG (kJmol^-1) [6]: -2.3 kJmol^-1

Reference: US5474986A, “Method for treating galabiose-binding bacteria infections” (priority 1988, dated 1995)
